Source: US20090099207A1, “Cyclic sulfones useful as BACE inhibitors” (priority 2006, published 2009)

Assays:
[1] = Test 4: Inhibition of cellular release of amyloid peptide 1-40; assay type: cell-based, Chinese hamster; conditions: Cricetulus griseus; CHO cells transfected with APP gene; 24 hours with test compound; amyloid peptide 1-40 in supernatant by sandwich ELISA
Source text: Test 4: Inhibition of Cellular Release of Amyloid Peptide 1-40

| melting point | IC50 [1] | Compound |
| --- | --- | --- |
| 173 to 175 °C |  | COc1ccc(C[C@@H]2CS(=O)(=O)C[C@H](NCc3cccc(C(C)C)c3)[C@H]2O)cc1Br.Cl |
| 239 to 242 °C |  | CC(C)c1cccc(CN[C@H]2CS(=O)(=O)C[C@@H](Cc3ccccc3)[C@@H]2O)c1.Cl (hydrate or solvate) |
|  | 4.7 µM | CO[C@@H](C)COCc1cccc(C[C@@H]2CS(=O)(=O)C[C@H](NCc3cccc(C(C)C)c3)[C@H]2O)c1 [Example 26, (3R,4S,5S)-3-(3-Isopropyl-benzylamino)-5-[3-((S)-2-methoxy-propoxy-methyl)-benzyl]-1,1-dioxo-hexahydro-1lambda*6*-thiopyran-4-ol] |
| 136 to 139 °C |  | CC(C)c1cccc(CN[C@H]2CS(=O)(=O)C[C@@H](Cc3ccc(Nc4ccncn4)cc3)[C@@H]2O)c1 [Example 44, (3R,4S,5S)-3-(3-Isopropyl-benzylamino)-1,1-dioxo-5-[4-(pyrimidin-4-ylamino)-benzyl]-hexahydro-1lambda*6*-thiopyran-4-ol] |
